Molecular target: T1, small-conductance Ca2+-activated K+ channels (SK channels, subtype 2) (Homo sapiens, UniProt Q9H2S1)
T1 construct: expressed in transfected cells; host or cells: HEK293
Experiment: whole-cell patch-clamp of ionic current through SK2 channels in HEK293 cells (SC100)
Assay type: cell-based
Settings: whole-cell patch-clamp, HEK293 cells expressing SK2 channels; concentration that increases the basal current by 100%
Outline: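 SC100, the concentration doubling basal current (a 100% increase), was taken from SK2 currents recorded by whole-cell patch-clamp in SK2-expressing HEK293 cells.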

Row | SMILES | SC100 (μM)
1 | Cc1nsc(-c2nc(NC3CCC(F)(F)CC3)cc(N3CCN4C(=O)OC[C@H]4C3)n2)n1 [NSSy6252] | ++ (++ means 200 nM-1000 nM)
2 | Cc1csc(-c2nc(NC3CCC(F)(F)CC3)cc(OC3CCS(=O)(=O)CC3)n2)n1 [NSSy6253] | ++ (++ means 200 nM-1000 nM)
3 | CC(=O)N1CCC(Oc2cc(NC3CCC(F)(F)CC3)nc(-c3nc(C)cs3)n2)CC1 [NSSy6258] | ++ (++ means 200 nM-1000 nM)
4 | Cc1csc(-c2nc(CC3CCC(F)(F)CC3)cc(N3CCOCC3)n2)n1 [NSSy6263, 4-(6-((4,4-difluorocyclohexyl)methyl)-2-(4-methylthiazol-2-yl)pyrimidin-4-yl)morpholine] | + (+ means >1 uM)
5 | Cc1cc(C)n(-c2nc(NC3CCCC(F)(F)C3)cc(N3CCOCC3)n2)n1 (stereo not drawn) [NSSy6265] | + (+ means >1 uM)
6 | Cc1ccn(-c2nc(NC3CCC(F)(F)CC3)cc(N(C)C3CC3)n2)n1 [NSSy6272] | ++ (++ means 200 nM-1000 nM)
7 | Cc1csc(-c2cc(N3CCOCC3)cc(OC3CCC(F)(F)CC3)n2)n1 [NSSy6285] | + (+ means >1 uM)
8 | Cc1csc(-c2cc(N(C)C3COC3)cc(NC3CCC(F)(F)CC3)n2)n1 [NSSy6288] | ++ (++ means 200 nM-1000 nM)
9 | Cc1csc(N2C[C@@H](Nc3ccc([N+](=O)[O-])cc3)C[C@H](N3CCOCC3)C2)n1 [NSSy6342, (3S,5S)-1-(4-methylthiazol-2-yl)-5-morpholino-N-(4-nitrophenyl)piperidin-3-amine] | + (+ means >1 uM)
10 | Fc1ccn(-c2nc(NC3CCC(F)(F)CC3)cc(N3CCOCC3)n2)n1 [NSSy6343] | + (+ means >1 uM)
11 | Cc1csc(-c2nc(N3CCOCC3)cc(N3CC4CCCCC43)n2)n1 (stereo not drawn) [NSSy6348, 4-(6-(7-azabicyclo[4.2.0]octan-7-yl)-2-(4-methylthiazol-2-yl)pyrimidin-4-yl)morpholine] | + (+ means >1 uM)
12 | Cc1cc(C)n(-c2cc(CO)cc(NC3CCC(F)(F)CC3)n2)n1 [NSSy6355, (2-((4,4-difluorocyclohexyl)amino)-6-(3,5-dimethyl-1H-pyrazol-1-yl)pyridin-4-yl) methanol] | ++ (++ means 200 nM-1000 nM)
13 | CC(=O)N1CCC(c2cc(NC3CCC(F)(F)CC3)nc(-n3ccc(C)n3)n2)CC1 [NSSy6369] | ++ (++ means 200 nM-1000 nM)
14 | Cc1ccn(-c2cc(COc3ccc(C#N)cn3)cc(NC3CCC(F)(F)CC3)n2)n1 [NSSy6371] | +++ (+++ means <200 nM)
15 | Cc1csc(-c2cc(OC3CCC(F)(F)CC3)nc(N3CCOCC3)c2)n1 [NSSy6374, 4-(6-((4,4-difluorocyclohexyl)oxy)-4-(4-methylthiazol-2-yl)pyridin-2-yl) morpholine] | + (+ means >1 uM)
16 | Cc1cc(C)n(-c2nc(N3CCOCC3)cc(N(O)C3CCC(F)(F)CC3)n2)n1 [NSSy6386] | + (+ means >1 uM)
17 | Cc1cc(C)n(-c2cc(N3CCOCC3)nc(NC3CCC(F)(F)CC3)n2)n1 [NSSy6389] | + (+ means >1 uM)
18 | Cc1csc(-c2cc(N3CCOCC3)nc(NC3CCC(F)(F)CC3)n2)n1 [NSSy6391, N-(4,4-difluorocyclohexyl)-4-(4-methylthiazol-2-yl)-6-morpholinopyrimidin-2-amine] | + (+ means >1 uM)
19 | Cc1ccn(-c2nc(NC3CCC(F)(F)CC3)cc(N3C[C@@H]4C[C@H]3CO4)n2)n1 [NSSy6394] | + (+ means >1 uM)
20 | Cc1ccn(-c2cc(C(O)c3ncco3)cc(NC3CCC(F)(F)CC3)n2)n1 (stereo not drawn) [NSSy6395] | ++ (++ means 200 nM-1000 nM)
21 | Cc1ccn(-c2cc([C@@H](O)c3ncco3)cc(NC3CCC(F)(F)CC3)n2)n1 [NSSy6415] | ++ (++ means 200 nM-1000 nM)
22 | Cc1ccn(-c2cc([C@H](O)c3ncco3)cc(NC3CCC(F)(F)CC3)n2)n1 [NSSy6416] | ++ (++ means 200 nM-1000 nM)
23 | Cc1ccn(-c2cc(COc3ccc(C#N)nn3)cc(NC3CCC(F)(F)CC3)n2)n1 [NSSy6417] | +++ (+++ means <200 nM)
24 | Cc1ccn(-c2nc(NC3CC4CCC3O4)cc(N3CCOCC3)n2)n1 (stereo not drawn) [NSSy6420] | + (+ means >1 uM)

Source: patent US10774064B2 (Cadent Therapeutics, Inc., priority 2016, dated 2020)
